Test results published in publication PMC10674160, “Synthesis and Preclinical Evaluation of Radiolabeled [^103Ru]BOLD-100” (Pharmaceutics, 2023).

Test: Tissue distribution in CT26 allograft bearing Balb/c mice (ICP-MS for 3a, gamma counting for 3b)
Format: in vivo
Details: 30 mg/kg i.v.
Procedure: UV/Vis spectra were recorded on a Hitachi U-2000 Dual Beam spectrophotometer. Sample activities were measured on an ISOMED 2010 dose calibrator. For centrifugation during synthesis, a Fisherbrand^TM Mini-Centrifuge from Fisher Scientific was used. Radioactive organ samples were measured on Perkin Elmer Wizard^2 gamma counter. Non-radioactive organ samples were prepared, and the ruthenium content was quantified with ICP-MS. The exact procedure including instrument information can be found in the Supplementary Materials.
For the evaluation of organ distribution, CT26 cells (5 × 10^5 in serum-free medium) were injected subcutaneously into the right flank of Balb/c mice. Animals were controlled for distress development every day and tumor size was assessed regularly using caliper measurements. CT26 cells were inoculated 10 days prior to drug application. Tumor volume was calculated using the formula: (length × width^2); the tumors reached a size of about 500 mm^3. Animals were treated once intravenously (i.v.) via tail-vein injection with 3a or 3b at a dose of 30 mg/kg (dissolved in 0.9% NaCl, 0.6 mg/100 µL/20 g mouse) and a specific activity of 0.64–1.36 MBq/mg for compound 3b. The mice were anesthetized and sacrificed by cervical fracture 4, 24, 48 and 72 h p.i., with n ≥ 2 (3a) and n ≥ 3 (3b) for each time point. Samples of tumor, liver, kidney, muscle, heart, lung, spleen, pancreas, stomach, colon, small intestine, brain, bone, and blood were collected from each mouse. After clotting at RT, serum was isolated from the collected blood samples by centrifugation at 3000 rpm for 10 min twice and stored together with the collected tissue samples at −20 °C. Finally, the ruthenium content was quantified by ICP-MS in the case of the non-radioactive BOLD-100 (3a) and via gamma counting for [^103Ru]BOLD-100 (3b).
An Agilent 7800 ICP-MS (Agilent Technologies, Tokyo, Japan) was being employed, which was equipped with an Agilent SPS 4 autosampler (Agilent Technologies, Tokyo, Japan) and a MicroMist nebulizer at a sample uptake rate of approx. 0.2 mL/min. The Agilent MassHunter software package (Workstation Software, Version C.01.04, 2018) was used for data evaluation. The instrumental parameters […]
Reference source not found..
Ta ble S1: Instrumental parameters for the ICP-MS measurements […]
Spray chamber Scott double-pass
Spraying chamber temp. 2°C
Nebulizer gas 1.06 L min−1
Auxiliary gas 0.90 L min−1
The instrumental limit of quantification (LOQ) was determined at the start of the measurement by […]
LOQ = blank average + 10*STD
Blank corrections were performed for all the samples. Robustness was ensured by tuning the ICP-MS on a daily basis, by using an internal standard (115In) and measuring calibration standards for each […]
Ultrapure water (18.2 MΩ cm, ELGA Water purification system, Purelab Ultra MK 2, UK or 18.2 MΩ cm, Milli-Q Advantage, Darmstadt, Germany), HNO3 (≥69%, Rotipuran Supra, Carl Roth, Karlsruhe, Germany) and H2O2 (30%, Suprapur, Merck, Darmstadt, Germany) were used for all dilutions for ICP-MS measurements. The Ru standard solution was purchased from Labkings (Hilversum, The Netherlands).
For the digestion, approx. 25–50 mg of each organ sample were weighed into PFA-tubes, with 2 mL HNO3 and 100 µL H2O2 being added. The solutions were then placed on a hot plate and heated up for 6 hours using a temperature program with a maximum temperature of 200 °C. After cooling down, the liquids were transferred directly to 15 mL tubes with the remaining solution being removed from the PFA tubes by washing twice with 4 mL ultrapure water, resulting in a final volume of about 10 mL. By writing down the total weight of the resulting liquid, the dilution factor could be calculated.

[Cl][Ru-]([Cl])([Cl])[Cl].[Na+].c1ccc2[nH]ncc2c1.c1ccc2[nH]ncc2c1 [3a, sodium trans-[tetrachloridobis(indazole)ruthenate(III)]]
%ID/g tissue Blood cells (4 h p.i.): 10.70 ± 4.38 %ID/g tissue | %ID/g tissue Blood cells (24 h p.i.): 3.43 ± 0.83 %ID/g tissue | %ID/g tissue Blood cells (48 h p.i.): 1.96 ± 1.09 %ID/g tissue | %ID/g tissue Blood cells (72 h p.i.): 0.67 ± 0.86 %ID/g tissue | %ID/g tissue Bones (4 h p.i.): 1.08 ± 0.25 %ID/g tissue | %ID/g tissue Bones (24 h p.i.): 0.79 ± 0.20 %ID/g tissue | %ID/g tissue Bones (48 h p.i.): 0.88 ± 0.16 %ID/g tissue | %ID/g tissue Bones (72 h p.i.): 1.12 ± 0.35 %ID/g tissue | %ID/g tissue Brain (4 h p.i.): 0.36 ± 0.19 %ID/g tissue | %ID/g tissue Brain (24 h p.i.): 0.15 ± 0.07 %ID/g tissue | %ID/g tissue Brain (48 h p.i.): 0.10 ± 0.02 %ID/g tissue | %ID/g tissue Brain (72 h p.i.): 0.11 ± 0.00 %ID/g tissue | %ID/g tissue Colon (4 h p.i.): 3.53 ± 1.27 %ID/g tissue | %ID/g tissue Colon (24 h p.i.): 2.58 ± 0.13 %ID/g tissue | %ID/g tissue Colon (48 h p.i.): 1.68 ± 0.58 %ID/g tissue | %ID/g tissue Colon (72 h p.i.): 1.63 ± 0.00 %ID/g tissue | %ID/g tissue Heart (4 h p.i.): 5.81 ± 0.94 %ID/g tissue | %ID/g tissue Heart (24 h p.i.): 3.66 ± 1.31 %ID/g tissue | %ID/g tissue Heart (48 h p.i.): 3.28 ± 0.63 %ID/g tissue | %ID/g tissue Heart (72 h p.i.): 2.37 ± 1.97 %ID/g tissue | %ID/g tissue Kidneys (4 h p.i.): 11.58 ± 1.35 %ID/g tissue | %ID/g tissue Kidneys (24 h p.i.): 10.02 ± 1.09 %ID/g tissue | %ID/g tissue Kidneys (48 h p.i.): 7.34 ± 4.13 %ID/g tissue | %ID/g tissue Kidneys (72 h p.i.): 6.78 ± 0.18 %ID/g tissue | %ID/g tissue Liver (4 h p.i.): 12.90 ± 1.14 %ID/g tissue | %ID/g tissue Liver (24 h p.i.): 9.84 ± 0.60 %ID/g tissue | %ID/g tissue Liver (48 h p.i.): 8.96 ± 3.11 %ID/g tissue | %ID/g tissue Liver (72 h p.i.): 7.90 ± 0.35 %ID/g tissue | %ID/g tissue Lung (4 h p.i.): 8.24 ± 2.06 %ID/g tissue | %ID/g tissue Lung (24 h p.i.): 4.84 ± 0.53 %ID/g tissue | %ID/g tissue Lung (48 h p.i.): 4.64 ± 0.94 %ID/g tissue | %ID/g tissue Lung (72 h p.i.): 4.41 ± 1.94 %ID/g tissue | %ID/g tissue Muscle (4 h p.i.): 0.82 ± 0.18 %ID/g tissue | %ID/g tissue Muscle (24 h p.i.): 0.99 ± 0.28 %ID/g tissue | %ID/g tissue Muscle (48 h p.i.): 0.66 ± 0.16 %ID/g tissue | %ID/g tissue Muscle (72 h p.i.): 0.84 ± 0.02 %ID/g tissue | %ID/g tissue Pancreas (4 h p.i.): 5.14 ± 2.01 %ID/g tissue | %ID/g tissue Pancreas (24 h p.i.): 2.81 ± 0.68 %ID/g tissue | %ID/g tissue Pancreas (48 h p.i.): 3.18 ± 0.85 %ID/g tissue | %ID/g tissue Pancreas (72 h p.i.): 2.19 ± 0.01 %ID/g tissue | %ID/g tissue Serum (4 h p.i.): 24.85 ± 0.85 %ID/g tissue | %ID/g tissue Serum (24 h p.i.): 9.26 ± 1.03 %ID/g tissue | %ID/g tissue Serum (48 h p.i.): 6.29 ± 1.02 %ID/g tissue | %ID/g tissue Serum (72 h p.i.): 1.41 ± 1.56 %ID/g tissue | %ID/g tissue Small intestine (4 h p.i.): 6.38 ± 3.36 %ID/g tissue | %ID/g tissue Small intestine (24 h p.i.): 3.78 ± 0.51 %ID/g tissue | %ID/g tissue Small intestine (48 h p.i.): 3.28 ± 2.02 %ID/g tissue | %ID/g tissue Spleen (4 h p.i.): 4.23 ± 0.68 %ID/g tissue | %ID/g tissue Spleen (24 h p.i.): 4.02 ± 0.71 %ID/g tissue | %ID/g tissue Spleen (48 h p.i.): 4.59 ± 1.57 %ID/g tissue | %ID/g tissue Spleen (72 h p.i.): 3.92 ± 1.93 %ID/g tissue | %ID/g tissue Stomach (4 h p.i.): 2.57 ± 0.29 %ID/g tissue | %ID/g tissue Stomach (24 h p.i.): 2.13 ± 0.17 %ID/g tissue | %ID/g tissue Stomach (48 h p.i.): 1.76 ± 0.77 %ID/g tissue | %ID/g tissue Stomach (72 h p.i.): 1.40 ± 0.01 %ID/g tissue | %ID/g tissue Tumor (4 h p.i.): 4.43 ± 1.20 %ID/g tissue | %ID/g tissue Tumor (24 h p.i.): 8.34 ± 1.36 %ID/g tissue | %ID/g tissue Tumor (48 h p.i.): 7.64 ± 1.78 %ID/g tissue | %ID/g tissue Tumor (72 h p.i.): 5.32 ± 1.22 %ID/g tissue
